# Paper PMC7697615, “Selective Interactions of O-Methylated Flavonoid Natural Products with Human Monoamine Oxidase-A and -B” (Molecules, 2020)
# Entries after “also recorded” stand apart in the source; their conditions may differ. Read-outs that look alike come from different tables or passages of the source.
# Experiments:
# MAO-B [1] = biological target: T1, MAO-B (Homo sapiens, UniProt P27338); test: MAO inhibition assay (kynuramine oxidative deamination), MAO-B; type: biochemical; design: purchased BD Biosciences (Bedford, MA, USA); conditions: kynuramine 50 μM; mean ± S.D. of at least triplicate observations
# T1 sequence (P27338 1-520): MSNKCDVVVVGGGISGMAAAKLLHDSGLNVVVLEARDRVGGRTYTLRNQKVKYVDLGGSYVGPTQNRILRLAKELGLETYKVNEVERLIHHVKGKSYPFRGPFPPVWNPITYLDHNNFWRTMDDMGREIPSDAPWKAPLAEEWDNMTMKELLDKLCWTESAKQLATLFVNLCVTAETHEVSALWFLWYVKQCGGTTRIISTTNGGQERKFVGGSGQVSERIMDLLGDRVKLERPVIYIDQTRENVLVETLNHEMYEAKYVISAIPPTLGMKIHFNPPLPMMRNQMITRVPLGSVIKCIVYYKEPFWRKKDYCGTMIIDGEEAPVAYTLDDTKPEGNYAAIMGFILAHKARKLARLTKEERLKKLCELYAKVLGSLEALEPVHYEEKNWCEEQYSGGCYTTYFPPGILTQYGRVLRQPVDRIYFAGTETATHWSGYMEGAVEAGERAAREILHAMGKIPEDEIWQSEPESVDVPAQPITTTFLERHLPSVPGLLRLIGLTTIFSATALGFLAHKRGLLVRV
# Experimental: In this study, we have investigated the effect of the isolated constituents (1–6) on human recombinant MAO-A and -B. The kynuramine oxidation deamination assay was performed in 96-well plates as previously reported, with modification. A fixed concentration of kynuramine substrate and varying concentrations of test compounds or inhibitor were used to determine the IC50 values. Kynuramine concentrations for MAO-A and -B were 80 μM and 50 μM, respectively. […] The enzyme reactions were terminated by the addition of 78 μL of 2N NaOH. The formation of 4-hydroxyquinoline (the enzyme reaction end product) was recorded fluorometrically on a SpectraMax M5 fluorescence plate reader (Molecular Devices, Sunnyvale, CA, USA) with an excitation (320 nm) and emission (380 nm) wavelength, using the Soft MaxPro-6 program. The inhibition effects of enzyme activity were calculated as the percent of product formation compared to the corresponding controls (enzyme–substrate reaction) without inhibitors. The assay controls, to define the interference of the test compounds with the fluorescence measurements, were set up simultaneously, and the enzyme or the substrate was added after stopping the reaction.
# (§1) The dose–response enzyme-inhibition curves were generated using Microsoft® Excel and the IC50 values were computed with XLfit®.
# MAO-A [2] = biological target: T2, MAO-A (Homo sapiens, UniProt P21397); test: MAO inhibition assay (kynuramine oxidative deamination), MAO-A; type: biochemical; conditions: for SI b (Selectivity index: MAO-A IC50/MAO-B IC50): ratio of IC50 values
# T2 construct: purchased BD Biosciences (Bedford, MA, USA)
# T2 sequence (P21397 1-527): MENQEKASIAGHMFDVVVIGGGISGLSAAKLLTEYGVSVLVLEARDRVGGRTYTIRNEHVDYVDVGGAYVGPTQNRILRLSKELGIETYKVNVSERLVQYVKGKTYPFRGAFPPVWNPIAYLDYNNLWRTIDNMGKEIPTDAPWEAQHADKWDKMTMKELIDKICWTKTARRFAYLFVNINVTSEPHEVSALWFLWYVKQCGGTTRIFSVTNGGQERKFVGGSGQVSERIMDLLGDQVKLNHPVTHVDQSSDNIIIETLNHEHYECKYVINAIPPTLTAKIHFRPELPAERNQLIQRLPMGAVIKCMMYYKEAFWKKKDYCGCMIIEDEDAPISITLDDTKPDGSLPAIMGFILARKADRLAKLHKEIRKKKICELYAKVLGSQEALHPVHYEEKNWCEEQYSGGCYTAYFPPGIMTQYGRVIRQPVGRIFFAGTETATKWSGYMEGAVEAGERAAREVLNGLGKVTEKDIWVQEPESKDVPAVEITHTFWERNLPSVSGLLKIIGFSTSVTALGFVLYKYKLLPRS
# Experimental: In this study, we have investigated the effect of the isolated constituents (1–6) on human recombinant MAO-A and -B. The kynuramine oxidation deamination assay was performed in 96-well plates as previously reported, with modification. A fixed concentration of kynuramine substrate and varying concentrations of test compounds or inhibitor were used to determine the IC50 values. Kynuramine concentrations for MAO-A and -B were 80 μM and 50 μM, respectively. […] The enzymatic reactions were initiated by the addition of MAO-A (5 μg/mL) or -B (12.5 μg/mL), and incubated for 20 min at 37 °C. The enzyme reactions were terminated by the addition of 78 μL of 2N NaOH. The formation of 4-hydroxyquinoline (the enzyme reaction end product) was recorded fluorometrically on a SpectraMax M5 fluorescence plate reader (Molecular Devices, Sunnyvale, CA, USA) with an excitation (320 nm) and emission (380 nm) wavelength, using the Soft MaxPro-6 program. The inhibition effects of enzyme activity were calculated as the percent of product formation compared to the corresponding controls (enzyme–substrate reaction) without inhibitors. The assay controls, to define the interference of the test compounds with the fluorescence measurements, were set up simultaneously, and the enzyme or the substrate was added after stopping the reaction.
# as §1
# MAO-A [3] = biological target: T2, MAO-A; test: Enzyme kinetics and mechanism study (Lineweaver-Burk), MAO-A; type: biochemical; conditions: for Type of Inhibition, Monoamine Oxidase-A: kinetics and dialysis
# Experimental: (§3) Three sets of assays were completed at varying concentrations of the substrate for each experiment, one control without inhibitor and the others with two different concentrations of the inhibitor. The data were evaluated by double reciprocal Lineweaver-Burk plots for determination of the Ki (i.e., inhibition/binding affinity) values.
# (§4) For determination of the binding affinity of the inhibitor (Ki) to MAO-A and -B, the enzyme assays were carried out at different concentrations of kynuramine substrate (1.90 μM to 500 μM) and varying concentrations of the inhibitors/compound. The flavonoids (1–6) were tested at 0.030–0.100 μM for MAO-A and 0.100–0.500 μM for -B. The controls without inhibitor were also run simultaneously. The results were analyzed by SigmaPlot version 10 using standard double reciprocal Lineweaver-Burk plots for computing Km and Vmax values, which were further analyzed to determine the Ki values [18, 36, 37].
# MAO-B [4] = biological target: T1, MAO-B; test: Time-dependent inhibition assay, MAO-B; type: biochemical; design: purchased BD Biosciences (Bedford, MA, USA); conditions: pre-incubation 0–15 min; 3 3.0 μM, 4 1.0 μM, 6 2.0 μM
# Experimental: To investigate if the binding of the inhibitor with MAO-A and -B followed time-dependent inhibition kinetics, the enzyme was pre-incubated with the inhibitor for different time periods (0–15 min). […] The controls without inhibitors were also run simultaneously. The activities of the MAO-A and -B enzymes were determined as described above and the percentage of enzyme activity remaining was plotted against the pre-incubation time to determine time-dependent inhibition.
# MAO-B [5] = biological target: T1, MAO-B; test: Enzyme kinetics and mechanism study (Lineweaver-Burk), MAO-B; conditions: for Type of Inhibition, Monoamine Oxidase-B: kinetics and dialysis
# Experimental: as §3, §4
# MAO-B [6] = biological target: T1, MAO-B; test: Enzyme-inhibitor complex equilibrium dialysis assay, MAO-B; type: binding; design: purchased BD Biosciences (Bedford, MA, USA); conditions: for MAO-B enzyme activity recovered after dialysis / inhibition at 50 µM: 50.0 μM; for inhibition at 50 µM: read-out: Inhibition of MAO-B activity on incubation (before dialysis); for Reversibility of binding with MAO-B: 20 min incubation, dialyzed overnight, 3, 4, 6 at 50.0 μM, deprenyl 0.500 μM
# Experimental: (§2) Enzyme-inhibitors mostly produce inhibition of the target enzyme through the formation of an enzyme–inhibitor complex. The formation of the enzyme–inhibitor complex may be accelerated in the presence of a high concentration of the test inhibitor. The property of binding of test compounds to MAO-A or -B was determined by the formation of the enzyme–inhibitor complex by incubation of the enzyme with a high concentration of the test compound. This was followed by extensive equilibrium dialysis of the enzyme–inhibitor complex. Recovery of catalytic activity of MAO-A and -B was determined before and after the dialysis. […] After 20 min incubation at 37 °C, the reaction was stopped by chilling the tubes in an ice bath. […] All the samples with enzyme–inhibitor complex were individually dialyzed against potassium phosphate buffer (25 mM; pH 7.4) at 4 °C for 16–18 h (including three buffer changes). The control enzyme (without inhibitor) was also run through the same procedure and the activity of the enzyme was determined before and after the dialysis.
# MAO-A [7] = biological target: T2, MAO-A; test: Enzyme-inhibitor complex equilibrium dialysis assay, MAO-A; type: binding; conditions: 20 min incubation, dialyzed overnight; 1 10.0 μM, 2 25.0 μM, 3 25.0 μM, 5 100.0 μM
# Experimental: as §2
# [8] = kynuramine 80 μM, mean ± S.D. of at least triplicate observations, read-out: MAO-A IC50
# [9] = double reciprocal plots, mean ± SD of three observations, read-out: Ki, Monoamine Oxidase-A
SMILES,IC50 (MAO-B [1]),IC50 (MAO-A [2]; [8]),SI b (Selectivity index: MAO-A IC50/MAO-B IC50) (MAO-A [2]),Ki (MAO-A [3]; [9]),Time dependence of MAO-B inhibition (MAO-B [4]),Ki (MAO-B [5]),"Type of Inhibition, Monoamine Oxidase-B (MAO-B [5])",MAO-B enzyme activity recovered after dialysis (MAO-B [6]),inhibition at 50 µM (MAO-B [6]),Reversibility of binding with MAO-B (MAO-B [6]),melting point,Selectivity for MAO-A vs. MAO-B (MAO-A [2]),"Type of Inhibition, Monoamine Oxidase-A (MAO-A [3])",IC50 (MAO-A [2]),Ki (MAO-A [3]),Reversibility of binding with MAO-A (MAO-A [7])
"COc1ccc(-c2oc3cc(O)cc(O)c3c(=O)c2OC)cc1 [Compound 1, 3,4′-di-O-methylkaempferol]",9670 ± 2310 nM,33 ± 42 nM,0.0034,37.9 ± 0.8 nM,,,,,,,,> 292 fold,reversible-competitive; also recorded: Competitive/Reversible,,,
"COc1cc(O)cc(O)c1C(=O)/C=C/c1ccccc1 [Compound 3, 2′,4′-dihydroxy-6′-methoxy-chalcone]",2700 ± 794 nM,,0.432,,did not show time-dependent inhibition,1240 ± 600 nM,reversible and competitive,80%,> 60%,reversible; also recorded: reversibly,,~ 2 fold,reversible-competitive; also recorded: Competitive/Reversible,1170 ± 513 nM,633 ± 107 nM,
"COc1ccc(-c2oc3cc(O)cc(O)c3c(=O)c2O)cc1 [Compound 5, 4′-O-methylkaempferol]",> 100000 nM,1350 ± 198 nM,,3530 ± 265 nM,,,,,,,,,partially-reversible mixed-type,,,partial reversibility; also recorded: partially reversible

# The remaining compounds from weak to strong by IC50 (MAO-B [1]), led by results:
IC50 (MAO-B [1]),IC50 (MAO-A [2]; [8]),SI b (Selectivity index: MAO-A IC50/MAO-B IC50) (MAO-A [2]),Ki (MAO-A [3]; [9]),Time dependence of MAO-B inhibition (MAO-B [4]),Ki (MAO-B [5]),"Type of Inhibition, Monoamine Oxidase-B (MAO-B [5])",MAO-B enzyme activity recovered after dialysis (MAO-B [6]),inhibition at 50 µM (MAO-B [6]),Reversibility of binding with MAO-B (MAO-B [6]),melting point,SMILES,Selectivity for MAO-A vs. MAO-B (MAO-A [2]),"Type of Inhibition, Monoamine Oxidase-A (MAO-A [3])",IC50 (MAO-A [2]),Ki (MAO-A [3]),Reversibility of binding with MAO-A (MAO-A [7])
5930 ± 833 nM,407 ± 75 nM,,339 ± 219 nM,,,,,,,,"COc1cc(O)c(C(=O)/C=C/c2ccccc2)c(OC)c1 [Compound 2, 2′-hydroxy-4′,6′-dimethoxy-chalcone]",,Competitive/Reversible,,,
875 ± 35 nM,87500 ± 3540 nM,100.0,,did not show time-dependent inhibition,874 ± 69 nM,reversible and competitive,80%,> 60%,reversible; also recorded: reversibly,,"COc1cc(-c2cc(=O)c3c(O)cc(O)cc3o2)c(OC)c(OC)c1OC [Compound 6, 5,7-dihydroxy-2,3,4,5-tetramethoxyflavone]",,,,,
800 ± 180 nM,5170 ± 1110 nM,6.451,,did not show time-dependent inhibition,809 ± 93 nM,reversible and competitive,80%,> 60%,reversible; also recorded: reversibly,275 to 277 °C,"COc1cc2oc(-c3ccc(O)cc3)cc(=O)c2c(O)c1C [Compound 4, 8-demethylsideroxylin]",,,,,
